Measurements: patent US7138361B2, “Herbicidal heterocycles” (E. I. du Pont de Nemours and Company, priority 2000, dated 2006)

Key:
Type in all cases: in vivo
[1] = tested on: Surinam grass (Brachiaria decumbens); test: Test B preemergence
In short: (§1)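 Ratings on a 0 to 100 visual scale (100 complete control) compare treated plants with controls 13 to 15 days after application. Treatments were pre- or postemergence sprays of compound in non-phytotoxic solvent with surfactant.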

[2] = tested on: barnyardgrass (Echinochloa crus-galli); test: Test B preemergence
In short: as §1

[3] = tested on: cocklebur (Xanthium strumarium); test: Test B preemergence
In short: as §1

corn (Zea mays) = test: Test B preemergence
In short: as §1

[4] = tested on: crabgrass (Digitaria sanguinalis); test: Test B preemergence
In short: as §1

[5] = tested on: giant foxtail (Setaria faberii); test: Test B preemergence
In short: as §1

[6] = tested on: lambsquarters (Chenopodium album); test: Test B preemergence
In short: as §1

[7] = tested on: morning glory (Ipomoea hederacea); test: Test B preemergence
In short: as §1

[8] = tested on: pigweed (Amaranthus retroflexus); test: Test B preemergence
In short: as §1

rice (Oryza saliva) = test: Test B preemergence
In short: as §1

[9] = tested on: velvetleaf (Abutilon theophrasti); test: Test B preemergence
In short: as §1

Nightshade = test: Test C preemergence
[10] = tested on: Surinam grass (Brachiaria decumbens); test: Test C preemergence
In short: (§2)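 Pre- and postemergence treatments used a non-phytotoxic solvent/surfactant formulation; post-treated plants measured 2 to 18 cm. Greenhouse hold 12–14 d; % control estimated visually relative to controls.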

[11] = tested on: cocklebur (Xanthium strumarium); test: Test C preemergence
In short: as §2

[12] = tested on: common ragweed (Ambrosia elatior); test: Test C preemergence
In short: as §2

[13] = tested on: crabgrass (Digitaria sanguinalis); test: Test C preemergence
In short: as §2

[14] = tested on: goosegrass (Eleusine indica); test: Test C preemergence
In short: as §2

[15] = tested on: lambsquarters (Chenopodium album); test: Test C preemergence
In short: as §2

[16] = tested on: pigweed (Amaranthus retroflexus); test: Test C preemergence
In short: as §2

soybean (Glycine max) = test: Test C preemergence
In short: as §2

[17] = tested on: woolly cupgrass (Eriochloa villosa); test: Test C preemergence
In short: as §2

[18] = Preemergence, Rate 500 g/ha, scale 0 to 100, 0 no effect, 100 complete control
[19] = preemergence, Rate 125 g/ha, scale of 0 to 100 where 0 is no effect and 100 is complete control, 13 to 15 days
[20] = Rate 125 g/ha, scale 0 to 100, 0 no effect, 100 complete control
[21] = preemergence, Rate 31 g/ha, scale 0 to 100
[22] = preemergence, Rate 62 g/ha, scale 0 to 100
[23] = preemergence, Rate 250 g/ha, scale 0 to 100, 0 no effect, 100 complete control
[24] = preemergence, Rate 125 g/ha, scale 0 to 100, 0 no effect, 100 complete control
[25] = Preemergence, Rate 500 g/ha, scale 0 to 100
[26] = Rate 62 g/ha, scale 0 to 100, 0 no effect, 100 complete control
[27] = preemergence, Rate 250 g/ha, visual evaluation after 12 to 14 days

## CCCC(C)c1ccn(C2SCN(c3cccc(OC(F)(F)F)c3)C2=O)n1 (stereo not drawn) [Compound 90]
[1]; [18]
  Plant response rating, Surinam grass: 80
[1]; [19]
  Plant response rating, Surinam grass: 20
[2]; [18]
  Plant response rating, Barnyardgrass: 100
[2]; [19]
  Plant response rating, Barnyardgrass: 50
[3]; [18]
  Plant response rating, Cocklebur: 0
[3]; [19]
  Plant response rating, Cocklebur: 0
Corn (Zea mays); [18]
  Plant response rating, Corn: 20
Corn (Zea mays); [19]
  Plant response rating, Corn: 0
[4]; [18]
  Plant response rating, Crabgrass: 100
[4]; [19]
  Plant response rating, Crabgrass: 90
[5]; [18]
  Plant response rating, Foxtail, Giant: 100
[5]; [19]
  Plant response rating, Foxtail, Giant: 80
[6]; [18]
  Plant response rating, Lambsquarters: 100
[6]; [19]
  Plant response rating, Lambsquarters: 100
[7]; [18]
  Plant response rating, Morningglory: 0
[7]; [19]
  Plant response rating, Morningglory: 0
[8]; [18]
  Plant response rating, Pigweed: 100
[8]; [19]
  Plant response rating, Pigweed: 80
Rice (Oryza saliva); [18]
  Plant response rating, Rice: 0
Rice (Oryza saliva); [19]
  Plant response rating, Rice: 0
[9]; [18]
  Plant response rating, Velvetleaf: 0
[9]; [19]
  Plant response rating, Velvetleaf: 0
Nightshade; Rate 31 g/ha, scale 0 to 100
  Plant response rating, Nightshade: 0
Nightshade; Rate 62 g/ha, scale 0 to 100
  Plant response rating, Nightshade: 0
Nightshade; Rate 125 g/ha; scale 0 to 100, 0 no effect, 100 complete control
  Plant response rating, Nightshade: 0
Nightshade; Rate 250 g/ha, scale 0 to 100, 0 no effect, 100 complete control
  Plant response rating, Nightshade: 0
[10]; [20]
  Plant response rating, Surinam grass: 10
[10]; [21]
  Plant response rating, Surinam grass: 0
[10]; [22]
  Plant response rating, Surinam grass: 0
[10]; [23]
  Plant response rating, Surinam grass: 40
[11]; [20]
  Plant response rating, Cocklebur: 0
[11]; [21]
  Plant response rating, Cocklebur: 0
[11]; [22]
  Plant response rating, Cocklebur: 0
[11]; [23]
  Plant response rating, Cocklebur: 0
[12]; [20]
  Plant response rating, Ragweed, Common: 0
[12]; [21]
  Plant response rating, Ragweed, Common: 0
[12]; [22]
  Plant response rating, Ragweed, Common: 0
[12]; [23]
  Plant response rating, Ragweed, Common: 0
[13]; [20]
  Plant response rating, Crabgrass: 100
[13]; [21]
  Plant response rating, Crabgrass: 80
[13]; [22]
  Plant response rating, Crabgrass: 80
[13]; [23]
  Plant response rating, Crabgrass: 100
[14]; [20]
  Plant response rating, Goosegrass: 100
[14]; [21]
  Plant response rating, Goosegrass: 20
[14]; [22]
  Plant response rating, Goosegrass: 100
[14]; [23]
  Plant response rating, Goosegrass: 100
[15]; [20]
  Plant response rating, Lambsquarters: 100
[15]; [21]
  Plant response rating, Lambsquarters: 10
[15]; [22]
  Plant response rating, Lambsquarters: 100
[15]; [23]
  Plant response rating, Lambsquarters: 100
[16]; [20]
  Plant response rating, Pigweed: 0
[16]; [21]
  Plant response rating, Pigweed: 0
[16]; [22]
  Plant response rating, Pigweed: 60
[16]; [23]
  Plant response rating, Pigweed: 100
Soybean (Glycine max); [20]
  Plant response rating, Soybean: 0
Soybean (Glycine max); [21]
  Plant response rating, Soybean: 0
Soybean (Glycine max); [22]
  Plant response rating, Soybean: 0
Soybean (Glycine max); [23]
  Plant response rating, Soybean: 0
[17]; [20]
  Plant response rating, Cupgrass, Woolly: 10
[17]; [21]
  Plant response rating, Cupgrass, Woolly: 0
[17]; [22]
  Plant response rating, Cupgrass, Woolly: 0
[17]; [23]
  Plant response rating, Cupgrass, Woolly: 60

## CC(C)c1ccn(C2SCN(c3cccc(OC(F)F)c3)C2=O)n1 (stereo not drawn) [Compound 44]
[1]; [18]
  Plant response rating, Surinam grass: 100
[1]; [24]
  Plant response rating, Surinam grass: 0
[2]; [18]
  Plant response rating, Barnyardgrass: 100
[2]; [24]
  Plant response rating, Barnyardgrass: 80
[3]; [24]
  Plant response rating, Cocklebur: 0
Corn (Zea mays); [18]
  Plant response rating, Corn: 20
Corn (Zea mays); [24]
  Plant response rating, Corn: 0
[4]; [18]
  Plant response rating, Crabgrass: 100
[4]; [24]
  Plant response rating, Crabgrass: 0
[5]; [18]
  Plant response rating, Foxtail, Giant: 100
[5]; [24]
  Plant response rating, Foxtail, Giant: 10
[6]; [18]
  Plant response rating, Lambsquarters: 100
[6]; [24]
  Plant response rating, Lambsquarters: 100
[7]; [18]
  Plant response rating, Morningglory: 0
[8]; [18]
  Plant response rating, Pigweed: 100
Rice (Oryza saliva); [18]
  Plant response rating, Rice: 100
[9]; [18]
  Plant response rating, Velvetleaf: 0
Nightshade; Rate 62 g/ha; scale 0 to 100, 0 no effect, 100 complete control
  Plant response rating, Nightshade: 0
Nightshade; [20]
  Plant response rating, Nightshade: 0
Nightshade; Rate 500 g/ha, scale 0 to 100
  Plant response rating, Nightshade: 30
[10]; [25]
  Plant response rating, Surinam grass: 90
[10]; [26]
  Plant response rating, Surinam grass: 0
[10]; [27]
  Plant response rating (0 to 100), Surinam grass: 80
[10]; [24]
  Plant response rating, Surinam grass: 80
[11]; [25]
  Plant response rating, Cocklebur: 100
[11]; [27]
  Plant response rating (0 to 100), Cocklebur: 30
[11]; [24]
  Plant response rating, Cocklebur: 0
[12]; [25]
  Plant response rating, Ragweed, Common: 50
[12]; [26]
  Plant response rating, Ragweed, Common: 0
[12]; [27]
  Plant response rating (0 to 100), Ragweed, Common: 50
[12]; [24]
  Plant response rating, Ragweed, Common: 0
[13]; [25]
  Plant response rating, Crabgrass: 100
[13]; [26]
  Plant response rating, Crabgrass: 100
[13]; [27]
  Plant response rating (0 to 100), Crabgrass: 100
[13]; [24]
  Plant response rating, Crabgrass: 100
[14]; [25]
  Plant response rating, Goosegrass: 100
[14]; [26]
  Plant response rating, Goosegrass: 90
[14]; [27]
  Plant response rating (0 to 100), Goosegrass: 100
[14]; [24]
  Plant response rating, Goosegrass: 100
[15]; [25]
  Plant response rating, Lambsquarters: 100
[15]; [26]
  Plant response rating, Lambsquarters: 100
[15]; [27]
  Plant response rating (0 to 100), Lambsquarters: 100
[15]; [24]
  Plant response rating, Lambsquarters: 100
[16]; [25]
  Plant response rating, Pigweed: 100
[16]; [26]
  Plant response rating, Pigweed: 0
[16]; [27]
  Plant response rating (0 to 100), Pigweed: 20
[16]; [24]
  Plant response rating, Pigweed: 0
Soybean (Glycine max); [25]
  Plant response rating, Soybean: 30
Soybean (Glycine max); [26]
  Plant response rating, Soybean: 0
Soybean (Glycine max); [27]
  Plant response rating (0 to 100), Soybean: 30
Soybean (Glycine max); [24]
  Plant response rating, Soybean: 0
[17]; [25]
  Plant response rating, Cupgrass, Woolly: 100
[17]; [26]
  Plant response rating, Cupgrass, Woolly: 30
[17]; [27]
  Plant response rating (0 to 100), Cupgrass, Woolly: 100
[17]; [24]
  Plant response rating, Cupgrass, Woolly: 90
